In ChEMBL document CHEMBL1124577, “LH-RH antagonists: design and synthesis of a novel series of peptidomimetics” (J Med Chem, 1989):

Experiments:
[1] = molecular target: T1, Gonadotropin-releasing hormone receptor (Rattus norvegicus, UniProt P30969); experiment: Binding affinity at Leutinizing releasing hormone receptor in rat pituitary using [125I]leuprolide as radioligand
T1 sequence (P30969 whole entry): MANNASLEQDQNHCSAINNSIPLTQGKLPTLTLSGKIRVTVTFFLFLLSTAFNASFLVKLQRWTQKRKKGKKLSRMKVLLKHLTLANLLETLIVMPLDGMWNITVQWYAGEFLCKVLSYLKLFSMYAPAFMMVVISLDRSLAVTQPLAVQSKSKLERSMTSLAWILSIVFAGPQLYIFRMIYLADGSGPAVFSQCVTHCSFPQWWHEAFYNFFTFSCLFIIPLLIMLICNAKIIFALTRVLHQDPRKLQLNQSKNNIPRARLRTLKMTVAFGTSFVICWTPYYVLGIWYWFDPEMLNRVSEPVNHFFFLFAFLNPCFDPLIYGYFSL

[2] = molecular target: T1, Gonadotropin-releasing hormone receptor; experiment: Dissociation constant was determined in vitro using rat pituitary membranes and [125I]-leuprolide as radioligand, at concentration 3.16*10e-6 M; format: cell membranes
[3] = molecular target: T1, Gonadotropin-releasing hormone receptor; experiment: Dissociation constant was determined in vitro using rat pituitary membranes, at concentration 1.0*10e-5 M; format: cell membranes
[4] = molecular target: T1, Gonadotropin-releasing hormone receptor; experiment: Binding affinity at LH-RH receptor in rat pituitary using [125I]leuprolide as radioligand
[5] = molecular target: T2, Gonadotropin-releasing hormone receptor (Rattus norvegicus) (UniProt P30969); experiment: Apparent receptor density at 3.16*10e-6 M concentration
T2 sequence (whole entry): T1 sequence (P30969 whole entry)

[6] = molecular target: T2, Gonadotropin-releasing hormone receptor (Rattus norvegicus); experiment: Apparent receptor density at 1.0*10e-5 M concentration
[7] = molecular target: T1, Gonadotropin-releasing hormone receptor; experiment: Dissociation constant was determined in vitro using rat pituitary membranes and [125I]leuprolide as radioligand, at concentration 3.16*10e-5 M; format: cell membranes
[8] = molecular target: T2, Gonadotropin-releasing hormone receptor (Rattus norvegicus); experiment: Apparent receptor density at 3.16*10e-5 M concentration
Rattus norvegicus = species: Rattus norvegicus; experiment: Antagonism of leuprolide-induced release of luteinizing hormone from rat pituitary cell; format: functional; conditions: Pituitary gland cell, read-out: pA2 (converted)

SMILES: CCC(C)n1ncn(-c2ccc(N3CCN(c4ccc(OC[C@H]5CO[C@](Cn6ccnc6)(c6ccc(Cl)cc6Cl)O5)cc4)CC3)cc2)c1=O (some centres not stated)
- IC50 [1]: > 30000 nM

SMILES: Clc1ccc([C@@]2(Cn3ccnc3)OC[C@H](COc3ccccc3)O2)c(Cl)c1
- IC50 [1]: > 30000 nM

SMILES: O=C1c2ccccc2C(=O)N1C[C@H]1CO[C@](Cn2ccnc2)(c2ccc(Cl)cc2Cl)O1
- IC50 [1]: > 30000 nM

SMILES: OC[C@H]1CO[C@](Cn2ccnc2)(c2ccc(Cl)cc2Cl)O1
- IC50 [1]: > 30000 nM

SMILES: O=C(NC[C@H]1CO[C@](Cn2ccnc2)(c2ccc(Cl)cc2Cl)O1)C1CCC(=O)N1C(=O)OCc1ccccc1 (some centres not stated)
- IC50 [1]: > 30000 nM

SMILES: CC(=O)N1CCN(c2ccc(OCC3COC(Cn4ccnc4)(c4ccc(Cl)cc4Cl)O3)cc2)CC1 (configuration not stated) [KETOCONAZOLE]
- Kd [2]: 0.221 nM
- Kd [3]: 0.375 nM
- IC50 [4]: 2000 nM
- Bmax [5]: 1.91 pmol/mg
- Bmax [6]: 2.01 pmol/mg
- Kd [7]: 811 nM
- Bmax [8]: 1.6 pmol/mg
- Kb (Rattus norvegicus): 64600 nM

SMILES: Clc1ccc([C@@]2(Cn3ccnc3)OC[C@H](CNCc3c[nH]c4ccccc34)O2)c(Cl)c1
- IC50 [1]: > 30000 nM

SMILES: O=C(NC[C@H]1CO[C@](Cn2ccnc2)(c2ccc(Cl)cc2Cl)O1)[C@H](Cc1c[nH]cn1)NC(=O)[C@@H]1CCC(=O)N1C(=O)OCc1ccccc1
- IC50 [1]: 2000 nM

SMILES: CC(C)(C)OC(=O)N[C@@H](Cc1c[nH]c2ccccc12)C(=O)N1CCC[C@H]1C(=O)N[C@@H](CC1=CNCN1)C(=O)NC[C@H]1CO[C@](Cn2ccnc2)(c2ccc(Cl)cc2Cl)O1
- IC50 [1]: 500 nM
- Kb (Rattus norvegicus): 4570 nM
